Experiment [1] relates to mouse embryo in the early stages of development (8-cell stage embryo). The following applies: glutathione 100 mM, 20° C., 90 seconds. The source says: The zona pellucida of a mouse embryo in the early stages of development (8-cell stage embryo) used for production of a genetically modified mouse was eliminated.
In experiment [2] the test system is frozen sperms of C57BL/6J mice. The experiment can be described thus: In vitro fertilization after sperm pre-incubation with MBCD and/or glutathione. It is filed as cell-based, mouse. The following applies: for number of 2-cell stage embryo(%) / number of 2-cell stage embryo: sperm pre-incubation MBCD −. As for the experimental part: A sperm suspension is pre-incubated in 90 μl of a TYH culture medium at 37° C. for 30 minutes, and under a stereomicroscope, sperms showing motility are collected, avoiding nonmotile sperms, and used for fertilization. The pre-incubated sperm suspension (10 μl) is added to 90 μl of an HTF culture medium (±glutathione) into which cumulus-oocyte complexes (COCs) have been previously introduced (insemination), and these are co-incubated in an incubator for 5 to 6 hours (37° C., 5% CO2), thereby performing fertilization. Thereafter, the ovum is washed with drops of new HTF, and the ovum is observed. Those judged to parthenogenetic (only one pronucleus is recognized in ooplasm) are excluded, and on the following day (24 hours after insemination), only 2-cell stage embryos are selected, and fertilization rate is determined according to the following formula. In vitro fertilization rate (%)=(number of 2-cell stage embryo)/(number of 2-cell stage embryo+number of unfertilized ovum)×100
The TYH culture medium used for pre-incubation of sperms was prepared according to the above-described composition excepting that polyvinyl alcohol (1.0 mg/ml, available from SIGMA) was used instead of bovine serum albumin, and methyl-β-cyclodextrin (0.75 mM, available from SIGMA) was added. Further, the concentration of glutathione in the TYH culture medium was 1 mM, preparation was carried out in the same manner as in Example 1, and glutathione was added to the TYH culture medium directly before use. The influence on fertilization rate was compared among those containing methyl-β-cyclodextrin, those containing glutathione and those containing both compounds.
Fertilization was conducted with 90 μl of an HTF culture medium (in the case of addition of glutathione, the concentration was 1 mM) containing cumulus-oocyte complexes (COCs), in the same manner as in Example 1 (IVF/glutathione in table). As the sperm, frozen sperms of C57BL/6J mice were used, and processed according to FIG. 1. Thawed sperms were pre-incubated in a TYH culture medium (±glutathione, ±methyl-β-cyclodextrin) at 37° C. for 30 minutes, and sperms showing motility were collected and used for fertilization. The experiment was conducted five times.

In experiment [3] the test system is protein thiol in zona pellucida. The following applies: glutathione 0.25 to 2.0 mM, 37° C., 1 hour; Alexa Fluor 488 C5-maleimide. As for the experimental part: Mouse fresh unfertilized ovums in which cumulus cells had been removed prepared according to the above-described “1. Preparation of oocyte” were prepared, then, 100 μl of an HTF culture medium containing glutathione at various concentrations (0, 0.25, 0.5, 0.75, 1.0, 1.25, 1.5 and 2.0 mM) was dropped onto the bottom of a petri dish, and 50 embryos were inserted into this, and treated at 37° C. for 1 hour. Thereafter, a protein thiol in zona pellucida was detected by using a thiol-reactive fluorescent dye (Alexa Fluor 488 C5-maleimide).

From patent US9453242B2, “Method and culture medium for preparing mammalian ovum or embryo in which zona pellucida has been thinned or eliminated, and method for fertilization using mammalian ovum prepared by same method” (NATIONAL UNIVERISTY CORPORATION KUMAMOTO UNIVERSITY, priority 2010, dated 2016) come the findings set out here.

For the compound `N[C@@H](CCC(=O)N[C@@H](CS)C(=O)NCC(=O)O)C(=O)O` [glutathione, reduced glutathione], the “elimination of zona pellucida of 8-cell stage embryo” value in experiment [1] is given as “elimination of zona pellucida from a 8-cell stage embryo”. In experiment [2] (glutathione 1 mM in IVF medium), the “effect of treating unfertilized ovums on fertilization rate” value was “remarkable improvement in fertilization rate”. For the same compound, the “number of 2-cell stage embryo(%)” value came out at 15% in experiment [2] (glutathione + (1 mM), IVF glutathione −); 38% in experiment [2] (glutathione +, IVF glutathione +); 36% in experiment [2] (glutathione −, IVF glutathione + (1 mM)). Moreover, the “number of 2-cell stage embryo” value in experiment [2] (glutathione + (1 mM), IVF glutathione −, 344 oocytes) was 53; in experiment [2] (glutathione +, IVF glutathione +, 371 oocytes), 140; in experiment [2] (glutathione −, IVF glutathione + (1 mM), 381 oocytes) it was 136. Besides, in experiment [2] (sperms pre-incubated with 1 mM glutathione or 0.75 mM MBCD, 37° C., 30 minutes), the “effect of sperm pre-incubation on fertilization rate” value was “improvement in fertilization rate was not observed”. The “fluorescent intensity in zona pellucida (free thiol group)” value in experiment [3] is “the fluorescent intensity in zona pellucida increased depending on the concentration of glutathione”.
